Source: ChEMBL document CHEMBL1128595, “Synthesis and biological activity of 7-alkylidenecephems” (J Med Chem, 1995)

Molecular target: Beta-lactamase (Enterobacter cloacae) (UniProt P05364)
Assay: The beta-lactamase inactivation partition ratio of the compound

SMILES	Partition ratio
CC(=O)OCC1=C(C(=O)[O-])N2C(=O)/C(=C/c3ccccn3)[C@H]2S(=O)(=O)C1.[Na+]	20
CC(=O)OCC1=C(C(=O)[O-])N2C(=O)C(=C=CC(C)(C)C)[C@H]2S(=O)(=O)C1.[Na+]	12
